From patent publication US10952976B2 (priority 2018, dated 2021)
Entries after “also recorded” stand apart in the source; their conditions may differ.

How the values were obtained:
[1] = target: T1, 5-HT2C receptor (Homo sapiens, UniProt P28335); details: cited from earlier work
T1 sequence (P28335 33-458): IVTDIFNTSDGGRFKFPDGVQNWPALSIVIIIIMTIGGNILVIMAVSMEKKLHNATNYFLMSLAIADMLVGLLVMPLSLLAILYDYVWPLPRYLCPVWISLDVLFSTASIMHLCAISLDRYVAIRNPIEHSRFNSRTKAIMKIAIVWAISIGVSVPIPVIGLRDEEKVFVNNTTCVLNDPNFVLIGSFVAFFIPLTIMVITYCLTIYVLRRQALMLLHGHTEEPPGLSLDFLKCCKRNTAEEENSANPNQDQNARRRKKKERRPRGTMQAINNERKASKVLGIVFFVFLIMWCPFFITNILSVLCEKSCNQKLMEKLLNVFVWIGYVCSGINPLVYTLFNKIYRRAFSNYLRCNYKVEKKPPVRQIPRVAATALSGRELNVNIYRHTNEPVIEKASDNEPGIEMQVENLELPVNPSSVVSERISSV

[2] = test system: DBA/1 mice (audiogenic seizures, seizure-induced respiratory arrest); test: Dose- and time-dependent effects of FFA on audiogenic seizures (AGSz) and S-IRA in DBA/1 mice; assay type: in vivo, mouse
Source text: These studies involved age matched (<80 days) male DBA/1 mice obtained from ENVIGO. […] Starting at postnatal day 23-25, the mice were primed and tested for consistent susceptibility to AGSz and S-IRA by presenting an intense acoustic stimulus, as described previously.
The typical seizure semiology in the DBA/1 mice begins with a wild running phase, followed by clonic-tonic seizures and then tonic hind-limb extension that immediately leads to S-IRA during post-ictal behavioral depression (PID). The onset of S-IRA was visually determined by the occurrence of respiratory failure following loss of the righting reflex, relaxation of the pinnae, and then a generalized loss of muscle tone. These behaviors are reliable indicators of imminent sudden death in DBA mice. […] The mice were placed in a supine position, and a polyethylene tube (4.4 mm external diameter) connected to the outflow of a rodent respirator (Harvard Apparatus 680), pumping one cc of room air at 200 strokes/min, was the placed over the nostrils, which produced observable displacement of the chest. […] The mice were monitored until they regained the righting reflex and then returned to their home cage. Video recordings of seizure behaviors and recovery were made for off-line evaluation and analysis, including the duration of PID, as indicated by time from muscle tone loss to return of the righting reflex.
The videos of seizure behaviors were analyzed visually, and the incidence (frequency) of AGSz, seizure severity, and incidence (frequency) of S-IRA following drug treatment were compared statistically to vehicle controls using the Chi-square, Mann-Whitney U or paired samples t-test with SPSS software. The ED50 was calculated using SigmaPlot 13 and Microsoft® Excel. The experimental protocols used in these studies were approved by the Laboratory Animal Care and Use Committee of Southern Illinois University School of Medicine, which are in accordance with National Institutes of Health guidelines for the care and use of laboratory animals. Measures to minimize animal usage as well as pain and discomfort were included in these procedures.
The incidence of S-IRA and tonic seizures were analyzed Chi-square test with a significance level set at p<0.05.

[3] = target: 5-HT2B receptor (Homo sapiens, UniProt P41595); details: cited from earlier work
5-HT2B receptor, sequence (P41595 whole entry): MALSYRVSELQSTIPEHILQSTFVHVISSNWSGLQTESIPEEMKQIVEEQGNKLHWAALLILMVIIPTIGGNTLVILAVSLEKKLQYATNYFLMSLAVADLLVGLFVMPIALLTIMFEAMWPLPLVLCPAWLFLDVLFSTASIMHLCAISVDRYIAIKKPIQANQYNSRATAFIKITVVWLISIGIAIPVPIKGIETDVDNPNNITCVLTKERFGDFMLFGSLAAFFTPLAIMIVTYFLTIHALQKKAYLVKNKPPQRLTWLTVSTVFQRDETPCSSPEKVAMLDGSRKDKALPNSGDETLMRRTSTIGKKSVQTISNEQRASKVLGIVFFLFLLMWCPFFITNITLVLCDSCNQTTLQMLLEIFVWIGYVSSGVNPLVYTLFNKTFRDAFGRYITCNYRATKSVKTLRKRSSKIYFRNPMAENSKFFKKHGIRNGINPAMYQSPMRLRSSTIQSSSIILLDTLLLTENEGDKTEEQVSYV

[4] = test system: DBA/1 mice (audiogenic seizures, seizure-induced respiratory arrest); test: Reversal of FFA's anticonvulsant and S-IRA blocking effects by selective 5-HT receptor antagonists in DBA/1 mice; assay type: in vivo, mouse; details: for reversal of S-IRA blocking effect of FFA (reduction in S-IRA incidence) / reversal of anticonvulsant effect of FFA (seizure severity, incidence of tonic seizures): antagonist dose not stated; for reversal of FFA's S-IRA blocking effect: 30 min before AGSz
[5] = test system: patients with Dravet syndrome; details: add-on (adjunctive) agent; cited from earlier work
[6] = in vivo; cited from earlier work
[7] = oral administration; cited from earlier work
[8] = test system: DBA mice; details: cited from earlier work; for seizure-induced respiratory failure and death in DBA mice: dose-dependent manner

For `CCNC(C)Cc1cccc(C(F)(F)F)c1` (racemic) [FFA, 3-trifluoromethyl-N-ethylamphetamine], the “affinity for 5-HT2C receptor” value [1] is listed as “high affinity”, the “incidence of S-IRA” value ([2]; FFA 5 mg/kg i.p.) is listed as “not affected” and the “incidence of S-IRA” value ([2]; FFA 10 mg/kg i.p., starting at 8 h, vs saline treated controls) is listed as “significant reduction”. The “incidence of S-IRA” value ([2]; FFA 15 mg/kg (n=73) vs saline (n=38), FIGS. 1C-1D) was “reduction”, the “incidence of S-IRA” value ([2]; FFA 15 mg/kg i.p., starting at 8 h, vs saline treated controls) was “significant reduction” and the “return of tonic AGSz and S-IRA susceptibility (time after FFA)” value ([2]; FFA 20 mg/kg) was “approximately 48 h”. The “incidence of S-IRA” value ([2]; FFA 20 mg/kg i.p., starting at 8 h, vs saline treated controls) was “significant reduction”, the “effect on S-IRA” value ([2]; FFA 10-20 mg/kg) was “blocking effect” and the “mice with significant reduction in the incidence of S-IRA” value ([2]; FFA 10-20 mg/kg, 8 h time point (FIG. 1B)) was 100%. The “incidence of tonic seizures” value ([2]; FFA i.p., dose not stated) was “significantly reduced”, the “seizure severity / AGSz susceptibility” value ([2]; dose- and time-dependent) was “significantly reduced seizure severity or blocked AGSz susceptibility” and the “affinity for 5-HT2B receptor” value [3] was “high affinity”. The “action at the 5-HT4 receptor, concluded from reversal by GR125487” value ([4]; conclusion from antagonist study in DBA/1 mice) was “agonist” and the “seizure activity (frequency and/or severity)” value [5] was “significantly reduced”.

For `Cc1nccn1CC1CCc2c(c3ccccc3n2C)C1=O` (stereo not drawn) [Ondansetron], the “reversal of FFA's effect (AGSz severity / S-IRA)” value ([4]; Ondansetron 1-3 mg/kg) was “not effective at any dose tested”, the “reversal of FFA's effect (AGSz severity / S-IRA)” value ([4]; Ondansetron 2-3 mg/kg) was “not effective at any dose tested” and the “reversal of S-IRA blocking effect of FFA (reduction in S-IRA incidence)” value [4] was “did not reverse”. The “reversal of anticonvulsant effect of FFA (seizure severity, incidence of tonic seizures)” value (“reversal of anticonvulsant effect of FFA” below) [4] was “did not reverse”.

For `CCC1(c2ccccc2)C(=O)NC(=O)NC1=O` [Phenobarbital], the half-life [6] is given as 92 h.

With `Cc1nc2sccn2c(=O)c1CCN1CCC(=C(c2ccc(F)cc2)c2ccc(F)cc2)CC1` [Ritanserin] the “reversal of FFA's anticonvulsant effect against the severity of AGSz” value (“reversal of FFA's anticonvulsant effect” below) ([4]; Ritanserin 20 mg/kg) was “able to reverse; also recorded: block”, the “reversal of FFA's anticonvulsant effect” value ([4]; Ritanserin 10-20 mg/kg) was “able to reverse” and the “reversal of FFA's S-IRA blocking effect” value ([4]; Ritanserin 10-20 mg/kg) was “not its S-IRA blocking effect”. The “reversal of S-IRA blocking effect of FFA (reduction in S-IRA incidence)” value [4] was “reversed” and the “reversal of anticonvulsant effect of FFA” value [4] was “reversed”.

With `CC1CCN(CC[C@H]2CCCN2S(=O)(=O)c2cccc(O)c2)CC1` [SB269970] the “reversal of FFA's anticonvulsant effect” value ([4]; SB269970 30 mg/kg and 40 mg/kg) was “able to reverse; also recorded: block”, the “reversal of FFA's S-IRA blocking effect” value ([4]; SB269970 30 mg/kg and 40 mg/kg) was “not its S-IRA blocking effect” and the “reversal of anticonvulsant effect of FFA” value [4] was “reversed”.

In the case of `CC[C@@H](c1cccc(O)c1)[C@@H](C)CN(C)C` [Tapentadol], the duration of analgesia [7] is listed as 4 to 6 h and the onset of analgesia [7] is listed as at most 32 min.

With `COc1ccccc1N1CCN(CCN(C(=O)C2CCCCC2)c2ccccn2)CC1` [WAY100635] the “reversal of FFA's effect (AGSz severity / S-IRA)” value ([4]; WAY100635 0.1-15 mg/kg) was “not effective at any dose tested”.

For `CNCC[C@@H](Oc1ccccc1C)c1ccccc1` [atomoxetine], the “seizure-induced respiratory failure and death in DBA mice” value [8] is given as “prevent”.

In the case of `CNCCC(Oc1ccc(C(F)(F)F)cc1)c1ccccc1` (stereo not drawn) [fluoxetine], the “S-IRA in DBA/1 mice” value ([8]; acting via 5-HT3 receptors) is given as “can prevent” and the “seizure-induced respiratory failure and death in DBA mice” value [8] is given as “prevent”.

In the case of `COCCCC/C(=N\OCCN)c1ccc(C(F)(F)F)cc1` [fluvoxamine], the “seizure-induced respiratory failure and death in DBA mice” value [8] is listed as “prevent”.

In the case of `CN[C@H]1CC[C@@H](c2ccc(Cl)c(Cl)c2)c2ccccc21` [sertraline], the “seizure-induced respiratory failure and death in DBA mice” value [8] is given as “prevent”.

In the case of `COc1ccc(C(CN(C)C)C2(O)CCCCC2)cc1` (stereo not drawn) [venlafaxine], the “seizure-induced respiratory failure and death in DBA mice” value [8] is listed as “prevent”.
